Measured values as given in patent US5885824A, “Recombinant genomic clone encoding the histamine H2 receptor, methods for production thereof, and protein produced therefrom” (The Regents of the University of Michigan, priority 1993, dated 1999).
Entries after “also recorded” stand apart in the source; their conditions may differ.

Key:
[1] = molecular target: T1, canine histamine H2 receptor (Canis lupus familiaris, UniProt P17124); test: cyclic AMP content of L-cells transfected with CMVneo vector containing the canine histamine H2 receptor gene insert; type: cell-based; conditions: for effect on cAMP content: doses as high as 10^-4 M, transfected L-cells
T1 construct: cloning of the entire gene encoding a histamine H2 receptor using cDNA derived from mRNA isolated from a canine gastric cell source; expressed in transfected cells; host or cells: mouse L-cells, permanently transfected (CMVneo vector, G418 selection)
T1 sequence (P17124 whole entry): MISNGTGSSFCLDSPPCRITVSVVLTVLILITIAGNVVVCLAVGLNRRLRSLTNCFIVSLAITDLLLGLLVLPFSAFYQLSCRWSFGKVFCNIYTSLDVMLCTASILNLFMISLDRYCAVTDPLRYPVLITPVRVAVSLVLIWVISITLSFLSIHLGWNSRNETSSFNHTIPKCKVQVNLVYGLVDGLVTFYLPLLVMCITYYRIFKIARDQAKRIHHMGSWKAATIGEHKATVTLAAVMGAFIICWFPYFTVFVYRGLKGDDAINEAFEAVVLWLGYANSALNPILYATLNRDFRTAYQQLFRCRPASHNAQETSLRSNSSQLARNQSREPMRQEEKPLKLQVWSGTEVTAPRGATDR

[2] = molecular target: T1, canine histamine H2 receptor; test: inhibition of [methyl-3H]-tiotidine binding to transformed L-cells; conditions: for inhibition of [methyl-3H]-tiotidine binding (in words): percent of maximal specific binding
Description: Transformed L-cells were plated and grown to confluence in 2.4×1.7 cm multi-well plates. The culture media was removed and cells were washed twice with Earle's balanced salt solution containing 0.1% bovine serum albumin. An aliquot (36 nCi) of [methyl-^3 H]-tiotidine (87 Ci/mmol; Dupont, Boston Mass.) was added to the culture in the presence of either cimetidine or diphenhydramine and after one hour of incubation, the medium was removed by aspiration. The cells were washed twice with 0.2M phosphate buffered NaCl pH 7.4, lysed with 1% Triton X-100, and the radioactivity was quantified. Maximum binding was determined by incubation of [methyl-^3H]-tiotidine with transformed L-cells in the absence of antagonists and non-specific binding, which was subtracted from total binding to obtain specific binding, was determined as the amount of label remaining bound in the presence of 10^-4 M histamine. The data, presented as percent of maximal specific binding, are from a single experiment and are virtually identical to data obtained in two other experiments.

| Structure (SMILES) | effect on cAMP content [1] | inhibition of [methyl-3H]-tiotidine binding (in words) [2] | further results |
| --- | --- | --- | --- |
| NCCc1c[nH]c2ccc(O)cc12 [Serotonin] | no effect | – | – |
| CN/C(=N/CCSCc1nc[nH]c1C)NC#N [cimetidine] | – | dose-dependently inhibited label binding | effect on histamine cAMP dose-response curve ([1]; 60 min pre-incubation with cimetidine (10^-4 M)): shifted to the right; IC50 ([2]; one hour of incubation, mean±se n=4, read-out: ED50 for displacement of [methyl-3H]-tiotidine binding): 550 nM |
| CN(C)CCOC(c1ccccc1)c1ccccc1 [diphenhydramine] | – | inhibited binding only at the very highest dose; also recorded: no ability to inhibit [methyl-^3 H]-tiotidine except with the highest dose | – |
| NCCc1ccc(O)c(O)c1 [dopamine] | no effect | – | – |
| CNC[C@H](O)c1ccc(O)c(O)c1 [epinephrine] | no effect | – | – |
| NCCc1c[nH]cn1 [histamine] | – | – | activation at 10 µM ([1]; 1 h, read-out: maximum increase in cellular cyclic AMP content): 217 ± 10% |
